Data on 7 molecules can be found in PMC9775322, “An Integrated Analysis of Mechanistic Insights into Biomolecular Interactions and Molecular Dynamics of Bio-Inspired Cu(II) and Zn(II) Complexes towards DNA/BSA/SARS-CoV-2 3CL^pro by Molecular Docking-Based Virtual Screening and FRET Detection” (Biomolecules, 2022).

Each structure is given as a SMILES string.

Assay [1] has as its system Salmonella enteric serovar typhi. Description: Agar disc diffusion antibacterial test. Particulars: B; for zone of inhibition at 100 µM: 20 µL of 100 µM on 6 mm disc, Control (DMSO) = 6 mm, read-out: diameter of clear zone inhibition; for Inhibition %: (T–C)/T × 100. The format is cell-based. (In agar diffusion tests the substance spreads into inoculated agar from a disc or well.)

For a further assay, the system named is Bacillus cereus. The assay can be described thus: Agar disc diffusion antibacterial test. Particulars: for zone of inhibition at 100 µM: Bacillus cereus, read-out: diameter of clear zone inhibition; for Inhibition %: G, (+) Bacillus cereus, (T–C)/T × 100.
In the next assay the test system is Pseudomonas aeruginosa. The assay can be described thus: Agar disc diffusion antibacterial test. Particulars: for Inhibition %: D, (-) Pseudomonas aeruginosa, (T–C)/T × 100; for zone of inhibition at 100 µM: Pseudomonas aeruginosa, read-out: diameter of clear zone inhibition.
In a further assay the test system is Shigella flexneri. The assay can be described thus: Agar disc diffusion antibacterial test. Particulars: for Inhibition %: E, (-) Shigella flexneri, (T–C)/T × 100; for zone of inhibition at 100 µM: Shigella flexneri, read-out: diameter of clear zone inhibition.
For a further assay, the system named is Staphylococcus Aureus. The assay can be described thus: Agar disc diffusion antibacterial test. To be noted: for Inhibition %: F, (+) Staphylococcus Aureus, (T–C)/T × 100; for zone of inhibition at 100 µM: Staphylococcus aureus, read-out: diameter of clear zone inhibition.
Assay [2] concerns Chromo bacterium violaceum. The assay can be described thus: Agar disc diffusion antibacterial test. Particulars: for Inhibition %: C, (-) Chromo bacterium violaceum, (T–C)/T × 100; for zone of inhibition at 100 µM: read-out: diameter of clear zone inhibition.
Another assay has as its system Escherichia coli. The assay can be described thus: Agar disc diffusion antibacterial test. Particulars: for Inhibition %: A, (-) Escherichia coli, (T–C)/T × 100; for zone of inhibition at 100 µM: Escherichia coli, read-out: diameter of clear zone inhibition.
The next assay has as its system Aspergillus niger. The assay can be described thus: Agar disc diffusion antifungal test. Particulars: for Inhibition %: H, (T–C)/T × 100; for zone of inhibition at 100 µM: read-out: diameter of clear zone inhibition.
For another assay, the system named is Candida albicans. The assay can be described thus: Agar disc diffusion antifungal test. Particulars: for Inhibition %: I, (T–C)/T × 100; for zone of inhibition at 100 µM: read-out: diameter of clear zone inhibition.
The next assay concerns Mucor indicus. Description: Agar disc diffusion antifungal test. To be noted: for Inhibition %: J, (T–C)/T × 100; for zone of inhibition at 100 µM: read-out: diameter of clear zone inhibition.
A short description of assay [3]: DPPH radical scavenging assay. The format is biochemical. To be noted: 517 nm. Background: DPPH is a stable violet radical that fades when it is reduced.
A short description of assay [4]: Hydroxyl radical scavenging assay. Particulars: 230 nm. The assay is classed as biochemical.
Assay [5] can be described thus: Superoxide scavenging assay. To be noted: 590 nm. The format is biochemical.
A short description of assay [6]: Nitric oxide scavenging assay. Particulars: 546 nm. The format is biochemical.
The test system of assay [7] is NHDF Normal human dermal fibroblasts cell line. The assay can be described thus: MTT cell viability assay. The assay is classed as cell-based. Particulars: 72 h exposure. (In general: Formazan colour is commonly taken as a measure of viable cells.)
Assay [8] concerns MCF-7 Breast cancer cell line. Description: MTT cell viability assay. Particulars: 72 h exposure, at least three independent experiments. The format is cell-based.
Assay [9] deals with A549 Human lung cancer cell line. Description: MTT cell viability assay. The format is cell-based. To be noted: 72 h exposure, at least three independent experiments.
Assay [10] relates to HepG2 Liver cancer cell line. Description: MTT cell viability assay. The assay is classed as cell-based. To be noted: 72 h exposure, at least three independent experiments.
The test system of another assay is CT-DNA. The assay can be described thus: DNA binding affinity by viscometric (hydrodynamic) titration. Particulars: for Relative Specific Viscosity (η/η0)^1/3: DNA 100 µM; for Slope of (η/η0)^1/3 vs [Compound]/[DNA]: linear plot, R 0.2–1.0. Also noted: species or system calf. As to the method:
The hydrodynamic titrations were carried out for all substances along with ethidium bromide (control) at 20, 40, 60, 80, 100 µM concentrations. In the Ostwald viscometer, these substances were also separately treated with the deoxyribonucleic acid solution (100 µM).
2.2.4. Viscometry-based titration for investigation of DNA binding
The Viscometry-based titration measurements were further supportive and delivered data about the binding modes between test compound and DNA base pairs. Nevertheless, it does not deliver definite confirmation for the exact mode of interactions. The experiment performed for all test compounds and ethidium bromide (control) at various concentrations 20, 40, 60, 80, 100 µM and each compound mixed with the CT-DNA solution (100 µM) in the Ostwald viscometer. With an accuracy of 0.01 seconds, a digital stopwatch was used to measure the average flow time. Due to the enhancement of the DNA's overall contour length during the separation of base pairs at intercalation sites, the classical intercalative mode […]
Generally, the compounds may result in less positive/negative or no viscosity change if they bind with DNA base pairs via […]
major or minor grooves [ 26]. […]
compounds via intercalation.

As for `NCC[C@H](O)C(=O)N[C@@H]1C[C@H](N)[C@@H](O[C@H]2O[C@H](CN)[C@@H](O)[C@H](O)[C@H]2O)[C@H](O)[C@H]1O[C@H]1O[C@H](CO)[C@@H](O)[C@H](N)[C@H]1O` [Amikacin, reference compound], the zone of inhibition at 100 µM in [1] was determined as 22 mm; in the assay with Bacillus cereus it was 20 mm; in the assay on Pseudomonas aeruginosa, 20 mm; in the assay with Shigella flexneri it was 20 mm; in the assay with Staphylococcus Aureus, 20 mm; in assay [2], 24 mm. Besides, the zone of inhibition at 100 µM in the assay on Escherichia coli was found to be 22 mm. The Inhibition % in assay [1] turned out to be 73%; in the assay with Bacillus cereus, 70%; in the assay with Pseudomonas aeruginosa it was 70%; in the assay on Shigella flexneri, 70%; with Staphylococcus Aureus it was 70%; in assay [2], 75%. Also, the Inhibition % in the assay on Escherichia coli is recorded as 73%.

Take `C[C@@H]1[C@H](O)[C@@H](C)/C=C/C=C/C=C/C=C/C=C/C=C/C=C/[C@H](O[C@@H]2O[C@H](C)[C@@H](O)[C@H](N)[C@@H]2O)C[C@@H]2O[C@](O)(C[C@@H](O)C[C@@H](O)[C@H](O)CC[C@@H](O)C[C@@H](O)CC(=O)O[C@H]1C)C[C@H](O)[C@H]2C(=O)O` [Amphotericin B, reference compound]: the Inhibition % with Aspergillus niger came to 60%; with Candida albicans, 65%; with Mucor indicus it was 65%. Also, the zone of inhibition at 100 µM with Aspergillus niger was 15 mm; in the assay on Candida albicans, 17 mm; in the assay on Mucor indicus, 17 mm.

`O=C1O[C@H]([C@@H](O)CO)C(O)=C1O` [Ascorbic acid, ascorbic acid, reference compound]: the “% Inhibition, DPPH” value in [3] (40 µM) is 41.63%; in assay [3] (80 µM) it was 53.74%; in assay [3] (120 µM) it was 58.95%; in assay [3] (160 µM), 70.86%; in [3] (200 µM) it was 82.75%; in [3] (240 µM), 85.65%. For the same molecule, the IC50 in [3] was found to be 80 µM; in [4] (read-out: IC50, hydroxyl radical inhibition) it was 160 µM; in assay [5], 120 µM. Besides, the “% Inhibition, hydroxyl radical” value in [4] (40 µM) was found to be 20.73%; in [4] (80 µM) it was 36.46%; in assay [4] (120 µM), 47.87%; in assay [4] (160 µM) it was 59.65%; in assay [4] (200 µM) it was 65.64%; in assay [4] (240 µM), 78.83%. The “% Inhibition, superoxide” value stood at 29.64% in [5] (40 µM); 41.72% in [5] (80 µM); 55.63% in assay [5] (120 µM); 66.75% in assay [5] (160 µM); 72.55% in assay [5] (200 µM); 84.85% in [5] (240 µM). The “% Inhibition, nitric oxide” value in assay [6] (40 µM) came out at 28.55%; in assay [6] (80 µM), 35.75%; in assay [6] (120 µM), 43.65%; in assay [6] (160 µM) it was 52.68%; in assay [6] (200 µM), 63.72%; in [6] (240 µM), 72.73%.

Regarding `N.N.[Cl][Pt][Cl]` [Cisplatin, cisplatin, reference compound], the IC50 in [7] worked out at 26.9 ± 1.3 µM; in assay [8], 20.2 ± 1 µM; in assay [9], 31.9 ± 1.6 µM; in assay [10], 22.9 ± 1.1 µM.

As to `CC[n+]1c(-c2ccccc2)c2cc(N)ccc2c2ccc(N)cc21` [EB, ethidium bromide, reference compound], the “Relative Specific Viscosity (η/η0)^1/3” value in the assay with CT-DNA (R = [Complex]/[DNA] = 0.2) is 1.01; in the assay with CT-DNA (R = [Complex]/[DNA] = 0.4) it was 1.35; in the assay with CT-DNA (R = [Complex]/[DNA] = 0.6), 1.63; in the assay on CT-DNA (R = [Complex]/[DNA] = 0.8), 1.82; with CT-DNA (R = [Complex]/[DNA] = 1.0) it was 1.99. Also, the “Slope of (η/η0)^1/3 vs [Compound]/[DNA]” value with CT-DNA is 1.2859; with CT-DNA (listed as (EB)) it was 1.286.

For `CC(=O)N1CCN(c2ccc(OCC3COC(Cn4ccnc4)(c4ccc(Cl)cc4Cl)O3)cc2)CC1` (stereo not drawn) [Ketoconazole, reference compound], the Inhibition % in the assay on Aspergillus niger stood at 63%; in the assay on Candida albicans, 67%; in the assay on Mucor indicus it was 67%. For the same molecule, the zone of inhibition at 100 µM with Aspergillus niger is 16 mm; in the assay on Candida albicans it was 18 mm; with Mucor indicus it was 18 mm.

Regarding `[H]/N=C(/N)N[C@H]1[C@H](O)[C@@H](O)[C@H](O[C@@H]2O[C@@H](C)[C@](O)(C=O)[C@H]2O[C@@H]2O[C@@H](CO)[C@H](O)[C@@H](O)[C@@H]2NC)[C@@H](N/C(N)=N\[H])[C@@H]1O` [Streptomycin, reference compound], the zone of inhibition at 100 µM in [1] was 26 mm; in the assay on Bacillus cereus, 21 mm; in the assay on Pseudomonas aeruginosa it was 21 mm; in the assay with Shigella flexneri it was 25 mm; in the assay on Staphylococcus Aureus, 21 mm; in assay [2], 24 mm. Also, the zone of inhibition at 100 µM in the assay on Escherichia coli was determined as 24 mm. Further, the Inhibition % in assay [1] stood at 77%; in the assay on Bacillus cereus it was 71%; in the assay on Pseudomonas aeruginosa, 71%; in the assay on Shigella flexneri, 76%; in the assay with Staphylococcus Aureus, 71%; in [2], 75%. The molecule also yielded an Inhibition % in the assay with Escherichia coli of 75%.

Usually zone of inhibition stands for the size of the clear area around the sample on an inoculated plate. The term IC50 denotes the point on the concentration scale where inhibition reaches its midpoint.
